pIC50: −log10 of the molar value.
Target: T1, catalytic domain of human Bub1 (amino acids 704-1085) (Homo sapiens, UniProt O43683)
T1 construct: catalytic domain of human Bub1 (amino acids 704-1085); His6 (N); made in house; host or cells: Hi5 insect cells
Test: Bub1 kinase assay (TR-FRET)
Format: biochemical
Settings: TR-FRET; ATP 10 μM, peptide substrate 1 μM; 60 min at 22° C.; average or median if tested more than once; read-out: Inhibition of Bub1 kinase IC50
Outline: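 Eleven concentrations (0.1 nM–20 μM, duplicate) fitted by 4-parameter logistic for IC50. Read-out: EDTA-stopped TR-FRET (665/620 nm) detecting anti-phosphoserine binding to biotin-peptide (1 μM). Reaction used 10 μM ATP, 60 min at 22 °C, after 15 min compound preincubation with His-tagged human Bub1 704-1085.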

T1 sequence (O43683 704-1085): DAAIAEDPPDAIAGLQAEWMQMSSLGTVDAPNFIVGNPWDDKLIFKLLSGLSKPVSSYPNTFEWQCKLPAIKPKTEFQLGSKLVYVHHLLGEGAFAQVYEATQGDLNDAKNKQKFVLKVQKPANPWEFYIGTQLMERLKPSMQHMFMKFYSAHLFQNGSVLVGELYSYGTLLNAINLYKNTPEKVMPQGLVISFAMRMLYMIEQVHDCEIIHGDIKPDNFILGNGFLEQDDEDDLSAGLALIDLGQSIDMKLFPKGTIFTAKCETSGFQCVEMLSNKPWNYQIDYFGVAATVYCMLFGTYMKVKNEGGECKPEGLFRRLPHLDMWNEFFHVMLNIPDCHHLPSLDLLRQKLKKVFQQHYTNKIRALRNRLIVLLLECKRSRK

Row | SMILES | pIC50
1 | Nc1cc(-c2[nH]c3c(c2Nc2ccccc2)C(=O)CNC3)ccn1 [Example 21, 2-(2-Aminopyridin-4-yl)-3-(phenylamino)-1,5,6,7-tetrahydro-4H-pyrrolo[2,3-c]pyridin-4-one] | 6.10
2 | CC(=O)Nc1cc(-c2[nH]c3c(c2Nc2ccc(C)cc2)C(=O)CN(C(C)=O)C3)ccn1 [Example 319, N-(4-(6-Acetyl-3-[(4-methylphenyl)amino]-4-oxo-4,5,6,7-tetrahydro-1H-pyrrolo[2,3-c]pyridin-2-yl)pyridin-2-yl)acetamide] | 6.72
3 | Cc1cnccc1-c1[nH]c2c(c1Nc1ccccc1)C(=O)CSC2 [Example 37, 2-(3-Methylpyridin-4-yl)-3-(phenylamino)-1,7-dihydrothiopyrano[3,4-b]pyrrol-4(5H)-one] | 6.32
4 | CC(=O)Nc1cc(-c2[nH]c3c(c2Nc2ccc(C)cc2)C(=O)CN(C(=O)OC(C)C)C3)ccn1 [Example 323, Propan-2-yl 2-[2-(acetylamino)pyridin-4-yl]-3-[(4-methylphenyl)amino]-4-oxo-1,4,5,7-tetrahydro-6H-pyrrolo[2,3-c]pyridine-6-carboxylate] | 6.64
5 | O=C1CNCc2[nH]c(-c3ccncc3F)c(Nc3ccccc3)c21 [Example 101, 2-(3-Fluoropyridin-4-yl)-3-(phenylamino)-1,5,6,7-tetrahydro-4H-pyrrolo[2,3-c]pyridin-4-one] | 7.37
6 | COc1cnccc1-c1[nH]c2c(c1Nc1ccccc1)C(=O)COC2 [Example 43, 2-(3-Methoxypyridin-4-yl)-3-(phenylamino)-1,7-dihydropyrano[3,4-b]pyrrol-4(5H)-one] | 7.08
7 | CCn1c2c(c(Nc3ccccc3)c1-c1ccncc1)C(=O)CN(S(C)(=O)=O)C2 [Example 65, 1-Ethyl-6-(methylsulfonyl)-3-(phenylamino)-2-(pyridin-4-yl)-1,5,6,7-tetrahydro-4H-pyrrolo[2,3-c]pyridin-4-one] | 5.77
8 | CC(C)(O)C(=O)Nc1cc(-c2[nH]c3c(c2Nc2ccccc2)C(=O)COC3)ccn1 [Example 152, N-[4-(3-Anilino-4-oxo-1,4,5,7-tetrahydropyrano[3,4-b]pyrrol-2-yl)pyridin-2-yl]-2-hydroxy-2-methylpropanamide] | 6.36
9 | CC(C)(C)OC(=O)N1CC(=O)c2c([nH]c(-c3ccncc3C(F)(F)F)c2Nc2ccccc2)C1 [Example 298, tert-Butyl 4-oxo-3-(phenylamino)-2-[3-(trifluoromethyl)pyridin-4-yl]-1,4,5,7-tetrahydro-6H-pyrrolo[2,3-c]pyridine-6-carboxylate] | 6.05
10 | CC(=O)Nc1cc(-c2[nH]c3c(c2Nc2ccc(F)cc2)C(=O)CNC3)ccn1 [Example 302, N-(4-{3-[(4-Fluorophenyl)amino]-4-oxo-4,5,6,7-tetrahydro-1H-pyrrolo[2,3-c]pyridin-2-yl}pyridin-2-yl)acetamide] | 6.53
11 | CNC(=O)N1CC(=O)c2c([nH]c(-c3ccnc(NC(C)=O)c3)c2Nc2ccc(C)cc2)C1 [Example 320, 2-[2-(Acetylamino)pyridin-4-yl]-N-methyl-3-[(4-methylphenyl)amino]-4-oxo-1,4,5,7-tetrahydro-6H-pyrrolo[2,3-c]pyridine-6-carboxamide] | 6.75
12 | O=C1CSCc2[nH]c(-c3ccncc3C(F)(F)F)c(Nc3ccccc3)c21 [Example 299, 3-(Phenylamino)-2-[3-(trifluoromethyl)pyridin-4-yl]-1,7-dihydrothiopyrano[3,4-b]pyrrol-4(5H)-one] | 5.13
13 | Cc1cc(F)ccc1C(=O)Nc1cc(-c2[nH]c3c(c2Nc2ccccc2)C(=O)CNC3)ccn1 [Example 264, 4-Fluoro-2-methyl-N-4-[4-oxo-3-(phenylamino)-4,5,6,7-tetrahydro-1H-pyrrolo[2,3-c]pyridin-2-yl]pyridin-2-ylbenzamide] | 7.09

Now those with a higher pIC50, led by results:

Row | pIC50 | SMILES
14 | 7.42 | CC(C)(F)C(=O)Nc1cc(-c2[nH]c3c(c2Nc2ccccc2)C(=O)CN(S(=O)(=O)c2cnc[nH]2)C3)ccn1 [Example 162, N-{4-[3-Anilino-6(1H-imidazol-5-ylsulfonyl)-4-oxo-4,5,6,7-tetrahydro-1H-pyrrolo[2,3-c]pyridin-2-yl]pyridin-2-yl}-2-fluoro-2-methylpropanamide]
15 | 7.59 | CC(C)(C)OC(=O)N1CC(=O)c2c([nH]c(-c3ccncc3Br)c2Nc2ccccc2)C1 [Example 100, tert-Butyl 2-(3-bromopyridin-4-yl)-4-oxo-3-(phenylamino)-1,4,5,7-tetrahydro-6H-pyrrolo[2,3-c]pyridine-6-carboxylate]
16 | 7.68 | C[S+]([O-])CCNC(=O)N1CC(=O)c2c([nH]c(-c3ccncc3)c2Nc2ccccc2)C1 (racemic) [Example 88, N-{2-[(RS)-Methylsulfinyl]ethyl}4-oxo-3-(phenylamino)-2-(pyridin-4-yl)-1,4,5,7-tetrahydro-6H-pyrrolo[2,3-c]pyridine-6-carboxamide]
17 | 7.70 | CC(=O)Nc1cc(-c2[nH]c3c(c2Nc2ccccc2)C(=O)CN(C(=O)c2ncco2)C3)ccn1 [Example 199, N-4-[6-(1,3-Oxazol-2-ylcarbonyl)-4-oxo-3-(phenylamino)-4,5,6,7-tetrahydro-1H-pyrrolo[2,3-c]pyridin-2-yl]pyridin-2-ylacetamide]
18 | 7.89 | CC(C)S(=O)(=O)N1CC(=O)c2c([nH]c(-c3ccncc3OCC(F)F)c2Nc2ccccc2)C1 [Example 241, 2-[3-(2,2-Difluoroethoxy)pyridin-4-yl]-3-(phenylamino)-6-(propan-2-ylsulfonyl)-1,5,6,7-tetrahydro-4H-pyrrolo[2,3-c]pyridin-4-one]
19 | 7.89 | CCNC(=O)N1CC(=O)c2c([nH]c(-c3ccnc(NC(C)=O)c3)c2Nc2ccccc2)C1 [Example 28]
20 | 7.89 | CC(C)(C)NC(=O)N1CC(=O)c2c([nH]c(-c3ccncc3)c2Nc2ccccc2)C1 [Example 85, N-tert-Butyl-4-oxo-3-(phenylamino)-2-(pyridin-4-yl)-1,4,5,7-tetrahydro-6H-pyrrolo[2,3-c]pyridine-6-carboxamide]
21 | 8.00 | COC(=O)N1CC(=O)c2c([nH]c(-c3ccnc(NC(=O)C4CC4(F)F)c3)c2Nc2ccccc2)C1 (racemic) [Example 146, Methyl 3-anilino-2-[2-({[(1RS)-2,2-difluorocyclopropyl]carbonyl}amino)pyridin-4-yl]-4-oxo-1,4,5,7-tetrahydro-6H-pyrrolo[2,3-c]pyridine-6-carboxylate]
22 | 8.05 | CC(=O)Nc1cc(-c2[nH]c3c(c2Nc2ccccc2)C(=O)CN(S(=O)(=O)c2cnc[nH]2)C3)ccn1 [Example 117, N-{4-[6-(1H-Imidazol-5-ylsulfonyl)-4-oxo-3-(phenylamino)-4,5,6,7-tetrahydro-1H-pyrrolo[2,3-c]pyridin-2-yl]pyridin-2-yl}acetamide]
23 | 8.10 | COC(=O)N1CC(=O)c2c([nH]c(-c3ccnc(NC(C)=O)c3)c2Nc2ccc(F)cc2)C1 [Example 314, Methyl 2-[2-(acetylamino)pyridin-4-yl]-3-[(4-fluorophenyl)amino]-4-oxo-1,4,5,7-tetrahydro-6H-pyrrolo[2,3-c]pyridine-6-carboxylate]
24 | 8.10 | Cn1cnc(S(=O)(=O)N2CC(=O)c3c([nH]c(-c4ccncc4)c3Nc3ccccc3)C2)c1 [Example 73, 6-[(1-Methyl-1H-imidazol-4-yl)sulfonyl]-3-(phenylamino)-2-(pyridin-4-yl)-1,5,6,7-tetrahydro-4H-pyrrolo[2,3-c]pyridin-4-one]
25 | 8.22 | CS(=O)(=O)N1CC(=O)c2c([nH]c(-c3ccncc3OCC3CC3)c2Nc2ccccc2)C1 [Example 235, 2-[3-(Cyclopropylmethoxy)pyridin-4-yl]-6-(methylsulfonyl)-3-(phenylamino)-1,5,6,7-tetrahydro-4H-pyrrolo[2,3-c]pyridin-4-one]
26 | 8.22 | COc1cnccc1-c1[nH]c2c(c1Nc1ccccc1)C(=O)CN(C(=O)C(C)(C)C)C2 [Example 106, 6-(2,2-Dimethylpropanoyl)-2(3-methoxypyridin-4-yl)-3-(phenylamino)-1,5,6,7-tetrahydro-4H-pyrrolo[2,3-c]pyridin-4-one]
27 | 8.30 | O=C1CN(C(=O)CCO)Cc2[nH]c(-c3ccncc3)c(Nc3ccccc3)c21 [Example 56, 6-(3-Hydroxypropanoyl)-3-(phenylamino)-2-(pyridin-4-yl)-1,5,6,7-tetrahydro-4H-pyrrolo[2,3-c]pyridin-4-one]
28 | 8.30 | CNC(=O)N1CC(=O)c2c([nH]c(-c3ccncc3OCCOC)c2Nc2ccccc2)C1 [Example 249]
29 | 8.40 | CC(=O)Nc1cc(-c2[nH]c3c(c2Nc2ccccc2)C(=O)CN(S(=O)(=O)N(C)C)C3)ccn1 [Example 254, N-4-[6(Dimethylsulfamoyl)-4-oxo-3-(phenylamino)-4,5,6,7-tetrahydro-1H-pyrrolo[2,3-c]pyridin-2-yl]pyridin-2-ylacetamide]
30 | 8.40 | CC(=O)Nc1cc(-c2[nH]c3c(c2Nc2ccccc2)C(=O)CN(S(=O)(=O)CCO)C3)ccn1 [Example 188, N-(4-{3-Anilino-6-[(2-hydroxyethyl)sulfonyl]-4-oxo-4,5,6,7-tetrahydro-1H-pyrrolo[2,3-c]pyridin-2-yl}pyridin-2-yl)acetamide]
31 | 8.52 | CC(C)S(=O)(=O)N1CC(=O)c2c([nH]c(-c3ccnc(NC(=O)[C@@H]4C[C@@H]4F)c3)c2Nc2ccccc2)C1 [Example 214, (1S,2S)-2-Fluoro-N-4-[4-oxo-3-(phenylamino)-6-(propan-2-ylsulfonyl)-4,5,6,7-tetrahydro-1H-pyrrolo[2,3-c]pyridin-2-yl]pyridin-2-ylcyclopropanecarboxamide]
32 | 8.52 | CC(=O)Nc1cc(-c2[nH]c3c(c2Nc2ccccc2)C(=O)CN(C(=O)N2CCCCC2)C3)ccn1 [Example 166, N-{4-[3-Anilino-4-oxo-6-(piperidin-1-ylcarbonyl)-4,5,6,7-tetrahydro-1H-pyrrolo[2,3-c]pyridin-2-yl]pyridin-2-yl}acetamide]
